Laboratory results taken from ChEMBL document CHEMBL1201862, “PubChem BioAssay data set” (2004).
Activity calls are given as the source filed them.

How the values were obtained:
Caspase-6 = Caspase-6 (Homo sapiens, UniProt P55212); assay: human caspase-6 inhibitors, dose response, biochemical, VEID-R110 fluorescence, cherry-pick (AID 720632)
[1] = molecular target: T1, Carboxy-terminal domain RNA polymerase II polypeptide A small phosphatase 1 (Homo sapiens, UniProt Q9GZU7); assay: inhibitors of CTDSP1, concentration-response testing, biochemical assay, absorbance-based, actives from ultra-high-throughput screening (AID 540297); format: functional
T1 sequence (Q9GZU7 whole entry): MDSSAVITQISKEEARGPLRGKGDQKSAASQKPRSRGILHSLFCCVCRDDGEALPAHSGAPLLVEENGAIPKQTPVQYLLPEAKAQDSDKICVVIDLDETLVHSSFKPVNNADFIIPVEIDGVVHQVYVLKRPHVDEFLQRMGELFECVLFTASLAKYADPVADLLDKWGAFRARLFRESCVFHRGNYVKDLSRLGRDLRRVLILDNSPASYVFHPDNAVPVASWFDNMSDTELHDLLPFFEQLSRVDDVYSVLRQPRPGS

[2] = molecular target: T2, Low molecular weight phosphotyrosine protein phosphatase (Homo sapiens, UniProt P24666); format: functional; details: read-out: IC50_Mean
T2 sequence (P24666 whole entry): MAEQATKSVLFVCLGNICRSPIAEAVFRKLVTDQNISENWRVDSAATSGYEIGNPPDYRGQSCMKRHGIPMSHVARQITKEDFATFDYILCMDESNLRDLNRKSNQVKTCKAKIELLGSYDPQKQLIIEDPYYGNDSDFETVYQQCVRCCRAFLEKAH

[3] = molecular target: T2, Low molecular weight phosphotyrosine protein phosphatase; format: functional; details: read-out: IC50_Mean; remark: listed apart in the source
Major prion protein = Major prion protein (Homo sapiens, UniProt P04156); format: functional, cell-based
cells [4] = assay: cells
[5] = molecular target: T3, Sentrin-specific protease 8 (Homo sapiens, UniProt Q96LD8); format: functional;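 also: kinetic enzyme assay of SENP8 cleaving a Nedd8 protein substrate, dose-response confirmation of screening hits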
T3 sequence (Q96LD8 whole entry): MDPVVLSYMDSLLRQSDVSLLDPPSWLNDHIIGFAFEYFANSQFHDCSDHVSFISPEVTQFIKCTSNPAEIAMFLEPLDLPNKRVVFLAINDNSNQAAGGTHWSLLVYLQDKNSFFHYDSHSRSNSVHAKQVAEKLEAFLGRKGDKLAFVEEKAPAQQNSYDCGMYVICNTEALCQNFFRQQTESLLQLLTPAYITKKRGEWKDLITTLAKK

Albumin = Albumin (Bos taurus, UniProt P02769); assay: Counterscreen for inhibitors of T-cell receptor (TCR)-CD3 interaction: Fluorescence-based biochemical high throughput dose response assay to identify inhibitors of T-cell receptor (TCR)-CD3 interaction using a TAMRA-labeled BSA probe.; format: functional
[6] = inhibitors of intracellular T. cruzi replication, confirmation, NIH3T3 host cells, beta-gal luminescence (AID 2044); format: functional, cell-based;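 also: intracellular parasites grown in NIH/3T3 mouse fibroblasts as host cells; luminescent beta-galactosidase reporter signal from transgenic T. cruzi replicating inside host cells; inhibitors lower the luminescence signal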
[7] = cytotoxicity toward NIH3T3 fibroblasts, dose response, counter-screen, cell-based, ATP luminescence, mouse fibroblasts (AID 2010); format: functional;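 also: cells exposed to compound for about 90 hours before reading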
Galanin receptor type 3 = Galanin receptor type 3 (Homo sapiens, UniProt O60755); assay: Fluorescence-based cell-based primary high throughput dose response assay to identify antagonists of the Galanin Receptor 3 (GalR3).; format: functional
cells [8] = format: functional, cell-based; details: HEK-CNG
[9] = molecular target: Heat shock protein HSP 90-alpha (Homo sapiens, UniProt P07900); format: functional, organism-based
Interleukin-8 = molecular target: T4, Interleukin-8 (Homo sapiens, UniProt P10145); assay: Dose Response confirmation of uHTS small molecule hits for cystic fibrosis induced NFkb Inhibitors in a PAF-induced IL8 counterscreen.; format: functional; details: read-out: IC50_Mean
T4 sequence (P10145 whole entry): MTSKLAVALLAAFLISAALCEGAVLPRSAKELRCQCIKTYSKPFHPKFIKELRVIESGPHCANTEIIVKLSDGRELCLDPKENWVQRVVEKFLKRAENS

HeLa = assay: HeLa cell cytotoxicity, dose response, cytotoxicity control, ATP luminescence, cherry-pick samples (AID 687004); format: functional, cell-based; details: Homo sapiens
[10] = non-specific cell cytotoxicity, dose response, cytotoxicity control for PAX8 inhibitor project, plate reader, dry powder samples (AID 743021); format: functional, cell-based
[11] = molecular target: 1-phosphatidylinositol 4,5-bisphosphate phosphodiesterase gamma-1 (Homo sapiens, UniProt P19174); assay: Counterscreen for inhibitors of phospholipase C isozymes (PLC-B3): Fluorescence-based biochemical high throughput dose response assay to identify inhibitors of phospholipase C isozymes (PLC-gamma1).
[12] = molecular target: 1-phosphatidylinositol 4,5-bisphosphate phosphodiesterase beta-3 (Homo sapiens, UniProt Q01970); assay: Fluorescence-based biochemical high throughput dose response assay to identify inhibitors of phospholipase C isozymes (PLC-B3).
[13] = molecular target: T5, Probable nicotinate-nucleotide adenylyltransferase (Staphylococcus aureus (strain N315), UniProt P65502); format: functional, Staphylococcus aureus subsp. aureus N315;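 as to IC50 Mean: confirmatory dose-response retesting of NadD inhibitor hits first found in an ultra-high-throughput screen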
[14] = molecular target: T5, Probable nicotinate-nucleotide adenylyltransferase; format: functional, Staphylococcus aureus subsp. aureus N315; details: read-out: IC50_Mean

O=C(Nc1cccc(C(F)(F)F)c1)c1cccc(NS(=O)(=O)c2ccc(O)c(C(=O)O)c2)c1
AC50 (Caspase-6): 40.3 µM (active)

O=C(Nc1nc2ccsc2c(=O)s1)c1ccc(F)cc1
IC50 [1]: 5.11 µM (active)
IC50 [2]: 32 µM (inactive)
IC50 [3]: 11 µM (active)

CCOc1cc(C2Nc3ccccc3C(=O)N2c2ccccc2)c(Br)cc1OCC(=O)O (stereo not given)
IC50 (Major prion protein): 10.1 µM (inactive)
IC50 (cells [4]): > 138 µM (inactive)

O=[N+]([O-])c1cc(F)c2cccnc2c1O
IC50 [5]: 12 µM (active)
AC50 (Caspase-6): 14.3 µM (active)

C=CCn1c(O)c(N=NC(=O)CNC(=O)/C=C/c2ccco2)c2ccccc21
IC50 (Albumin): > 94.1 µM (inactive)

CC(C)c1nc(SCC(=O)Nc2nccs2)c2ccccc2n1
IC50 (Major prion protein): 2.4 µM (active)
IC50 (cells [4]): > 138 µM (inactive)

O=C(CN1CCC(c2nc3ccccc3s2)CC1)NCc1cccs1
EC50 [6]: 0.646 µM (active)
EC50 [7]: > 30 µM (not active)
IC50 (Galanin receptor type 3): 1.39 µM (active)
EC50 (cells [8]): > 29.9 µM (inactive)

Cc1ccc(-c2onc3ccc(C(=O)/C=C/N(C)C)cc23)cc1
AC50 [9]: 4.11 µM (active)
IC50 (Interleukin-8): 17.9 µM (inactive)

Cc1ccc(-n2ncc3c(SCC(N)=O)ncnc32)cc1C
AC50 (HeLa): > 52 µM (inactive)

Cc1ccc(NC(=S)N(CCCN2CCOCC2)Cc2ccccn2)cc1
AC50 [10]: 50.9 µM (active)

CCc1nc(N)nc(N)c1-c1ccc(Cl)c(N=[N+]=[N-])c1
IC50 [2]: 24.1 µM (inactive)
IC50 [3]: 13.4 µM (active)

COc1ccc(CCN(C)C(=O)CN2C(=O)NC3(CCCc4ccccc43)C2=O)cc1OC (stereo not given)
IC50 [11]: > 122 µM (inactive)
IC50 [12]: > 122 µM (inactive)

O=C1NC[C@H](Cc2ccccc2)N(C[C@H]2CCCN2C[C@H](Cc2ccccc2)N2C[C@H](Cc3ccc(O)cc3)N(CC3CCCCCC3)C(=O)C2=O)C1=O
IC50 [13]: 11.6 µM (active)
IC50 [14]: 37.5 µM (active)
